Experiments:
Experiment in all cases: Test B pre-/postemergence plant response
Assay type in all cases: in vivo
Details in all cases: Preemergence
[1] = system: eastern black (E.B.) nightshade (Solanum ptycanthum)
Procedure, shortened: (§1)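 Visual scoring from 0 (no effect) to 100 (complete control) against untreated controls was done 13 to 15 days after greenhouse treatment. Chemicals were formulated in a surfactant-containing non-phytotoxic solvent and applied to soil preemergence or to 1- to 4-leaf (2-18 cm) plants postemergence.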

wild oat (Avena fatua) = system: wild oat (Avena fatua)
Procedure, shortened: as §1

corn (Zea mays) = system: corn (Zea mays)
Procedure, shortened: as §1

[2] = system: yellow nutsedge (Cyperus esculentus)
Procedure, shortened: as §1

[3] = system: surinam grass (Brachiaria decumbens)
Procedure, shortened: as §1

[4] = system: green foxtail (Setaria viridis)
Procedure, shortened: as §1

[5] = system: morningglory (Ipomoea coccinea)
Procedure, shortened: as §1

[6] = system: common ragweed (Ambrosia elation)
Procedure, shortened: as §1

[7] = system: cocklebur (Xanthium strumarium)
Procedure, shortened: as §1

kochia (Kochia scoparia) = system: kochia (Kochia scoparia)
Procedure, shortened: as §1

[8] = system: Italian ryegrass (Lolium multiflorum)
Procedure, shortened: as §1

[9] = system: catchweed bedstraw (Galium aparine)
Procedure, shortened: as §1

[10] = system: lambsquarters (Chenopodium album)
Procedure, shortened: as §1

[11] = 31 g ai/ha, 0 to 100 scale, 0 no effect, 100 complete control

Compound: Cc1cc(-c2ccc(C(F)(F)F)cc2)nn1-c1c(OC(=O)C(C)(C)C)cnn(C)c1=O [Compound 2]
- Plant response rating, Nightshade, E. B. [1, 11]: 0
- Plant response rating, Nightshade, E. B. ([1]; 62 g ai/ha, scale 0 to 100): 0
- Plant response rating, Nightshade, E. B. ([1]; 125 g ai/ha, scale 0 to 100): 0
- Plant response rating, Nightshade, E. B. ([1]; 250 g ai/ha, scale 0 to 100): 0
- Plant response rating, Oat, Wild (wild oat (Avena fatua); [11]): 0
- Plant response rating, Oat, Wild (wild oat (Avena fatua); 62 g ai/ha, scale 0 to 100): 50
- Plant response rating, Oat, Wild (wild oat (Avena fatua); 250 g ai/ha, scale 0 to 100): 60
- Plant response rating, Corn (corn (Zea mays); [11]): 50
- Plant response rating, Corn (corn (Zea mays); 62 g ai/ha, scale 0 to 100): 90
- Plant response rating, Corn (corn (Zea mays); 125 g ai/ha, scale 0 to 100): 95
- Plant response rating, Corn (corn (Zea mays); 250 g ai/ha, scale 0 to 100): 95
- Plant response rating, Nutsedge, Yellow [2, 11]: 0
- Plant response rating, Nutsedge, Yellow ([2]; 62 g ai/ha, scale 0 to 100): 0
- Plant response rating, Nutsedge, Yellow ([2]; 125 g ai/ha, scale 0 to 100): 0
- Plant response rating, Nutsedge, Yellow ([2]; 250 g ai/ha, scale 0 to 100): 0
- Plant response rating, Surinam Grass [3, 11]: 85
- Plant response rating, Surinam Grass ([3]; 62 g ai/ha, scale 0 to 100): 85
- Plant response rating, Surinam Grass ([3]; 250 g ai/ha, scale 0 to 100): 100
- Plant response rating, Foxtail, Green [4, 11]: 90
- Plant response rating, Foxtail, Green ([4]; 62 g ai/ha, scale 0 to 100): 95
- Plant response rating, Foxtail, Green ([4]; 125 g ai/ha, scale 0 to 100): 100
- Plant response rating, Foxtail, Green ([4]; 250 g ai/ha, scale 0 to 100): 100
- Plant response rating, Morningglory [5, 11]: 0
- Plant response rating, Morningglory ([5]; 62 g ai/ha, scale 0 to 100): 0
- Plant response rating, Morningglory ([5]; 125 g ai/ha, scale 0 to 100): 0
- Plant response rating, Morningglory ([5]; 250 g ai/ha, scale 0 to 100): 0
- Plant response rating, Ragweed [6, 11]: 0
- Plant response rating, Ragweed ([6]; 62 g ai/ha, scale 0 to 100): 0
- Plant response rating, Ragweed ([6]; 125 g ai/ha, scale 0 to 100): 0
- Plant response rating, Ragweed ([6]; 250 g ai/ha, scale 0 to 100): 0
- Plant response rating, Cocklebur [7, 11]: 0
- Plant response rating, Cocklebur ([7]; 62 g ai/ha, scale 0 to 100): 0
- Plant response rating, Cocklebur ([7]; 125 g ai/ha, scale 0 to 100): 0
- Plant response rating, Cocklebur ([7]; 250 g ai/ha, scale 0 to 100): 0
- Plant response rating, Kochia (kochia (Kochia scoparia); [11]): 0
- Plant response rating, Kochia (kochia (Kochia scoparia); 62 g ai/ha, scale 0 to 100): 0
- Plant response rating, Kochia (kochia (Kochia scoparia); 125 g ai/ha, scale 0 to 100): 0
- Plant response rating, Kochia (kochia (Kochia scoparia); 250 g ai/ha, scale 0 to 100): 50
- Plant response rating, Ryegrass, Italian [8, 11]: 75
- Plant response rating, Ryegrass, Italian ([8]; 62 g ai/ha, scale 0 to 100): 100
- Plant response rating, Ryegrass, Italian ([8]; 125 g ai/ha, scale 0 to 100): 100
- Plant response rating, Ryegrass, Italian ([8]; 250 g ai/ha, scale 0 to 100): 100
- Plant response rating, Galium [9, 11]: 100
- Plant response rating, Galium ([9]; 62 g ai/ha, scale 0 to 100): 100
- Plant response rating, Galium ([9]; 250 g ai/ha, scale 0 to 100): 100
- Plant response rating, Lambsquarters [10, 11]: 0
- Plant response rating, Lambsquarters ([10]; 62 g ai/ha, scale 0 to 100): 0
- Plant response rating, Lambsquarters ([10]; 125 g ai/ha, scale 0 to 100): 0
- Plant response rating, Lambsquarters ([10]; 250 g ai/ha, scale 0 to 100): 30

Reference: patent publication US20100267561A1, “HERBICIDAL PYRIDAZINONE DERIVATIVES” (priority 2007, published 2010)
